Measurements taken from patent US4112228A, “7-(D-α-Hydroxy-2-arylacetamido)-3-(2-carboxyalkyl-2,3-dihydro-s-tri azolo-[4,3-b]pyridazin-3-on-6-ylthiomethyl)-3-cephem-4-carboxylic acids and derivatives” (priority 1977, dated 1978).
Values after ≈ are worked out from the molar mass of the structure shown. Read-outs that look alike come from different tables or passages of the source.

Legend:
[1] = system: E. coli; assay: MIC by Steers' agar dilution method; format: cell-based; settings: Escherichia coli, read-out: MIC
[2] = system: Sal. enteritidis; assay: MIC by Steers' agar dilution method; settings: Salmonella enterica
[3] = system: S. pyogenes; assay: MIC by Steers' agar dilution method
[4] = system: S. aureus Smith; assay: Standard experimental infection in mice; format: in vivo; settings: Table 6
[5] = system: P. vulgaris A9436 (Pv-1); assay: Standard experimental infection (single sc treatment); settings: for No. of survivors/No. tested: Run C-808, single sc
[6] = system: Serr. marcescens; assay: MIC by Steers' agar dilution method; settings: Serratia marcescens
[7] = system: Pr. mirabilis; assay: MIC by Steers' agar dilution method; settings: Proteus mirabilis
[8] = system: Sal. typhosa; assay: MIC by Steers' agar dilution method; format: cell-based; settings: St-1; MHA; Table 3

Cn1nnnc1SCC1=C(C(=O)O)N2C(=O)[C@@H](NC(=O)[C@H](O)c3ccccc3)[C@H]2SC1 [Cefamandole, cefamandole, reference compound]
MIC ([1]; Ec-51 A20343 (β-lactamase), MHA, Table 4): 25 µg/mL (≈ 54.1 µM) | MIC ([1]; Ec-51 A20343 (β-lactamase), NA, Table 4): 12.5 µg/mL (≈ 27 µM) | MIC ([1]; Ec-51 A20343, MHA, Table 3): 12.5 µg/mL (≈ 27 µM) | MIC ([1]; Ec-56 A20365, MHA, Table 3): 12.5 µg/mL (≈ 27 µM) | MIC ([1]; Ec-58 A9675, MHA, Table 3): 1.6 µg/mL (≈ 3.46 µM) | MIC ([1]; Ec-59 A20766, MHA, Table 3): 0.8 µg/mL (≈ 1.73 µM) | MIC ([1]; Ec-62 A20895, MHA, Table 3): 0.8 µg/mL (≈ 1.73 µM) | MIC ([1]; Juhl A15119, MHA, Table 1): 0.4 µg/mL (≈ 0.865 µM) | MIC ([1]; Juhl, MHA, Example 10): 0.8 µg/mL (≈ 1.73 µM) | MIC ([1]; NIHJ, MHA, Example 10): 0.05 µg/mL (≈ 0.108 µM) | MIC ([1]; NIHJ, MHA, Table 1): 0.025 µg/mL (≈ 0.0541 µM) | MIC ([1]; strain not named (1st of 3), MHA, Example 10): 0.1 µg/mL (≈ 0.216 µM) | MIC ([1]; strain not named (2nd of 3), MHA, Example 10): 0.1 µg/mL (≈ 0.216 µM) | MIC ([1]; strain not named (3rd of 3), MHA, Example 10): 1.6 µg/mL (≈ 3.46 µM) | MIC ([2]; A9531, MHA, Table 1): 0.1 µg/mL (≈ 0.216 µM) | MIC ([2]; MHA, Example 10): 0.05 µg/mL (≈ 0.108 µM) | MIC ([2]; Se-1 A9531, MHA, Table 3): 0.2 µg/mL (≈ 0.432 µM) | MIC [3]: 0.1 µg/mL (≈ 0.216 µM) | MIC ([3]; Sp-2 Dick, MHA, Table 2): 0.1 µg/mL (≈ 0.216 µM) | MIC ([3]; Sp-3 A9604, MHA, Table 2): 0.1 µg/mL (≈ 0.216 µM) | MIC ([3]; Sp-5 A15040, MHA, Table 2): 0.1 µg/mL (≈ 0.216 µM) | MIC ([3]; Sp-6 A20066, MHA, Table 2): 0.1 µg/mL (≈ 0.216 µM) | MIC ([3]; Sp-7 Dig 7, MHA, Table 2): 0.1 µg/mL (≈ 0.216 µM) | MIC ([3]; Sp-8 A15041, MHA, Table 2): 0.1 µg/mL (≈ 0.216 µM) | MIC ([3]; Sp-9 A20201, MHA, Table 2): 0.1 µg/mL (≈ 0.216 µM) | MIC ([3]; Sp-10 A20202, MHA, Table 2): 0.1 µg/mL (≈ 0.216 µM) | MIC ([3]; Streptococcus pyogenes): 0.1 µg/mL (≈ 0.216 µM) | No. of survivors/No. tested ([4]; 0.4 mg./kg.): 1/5 | No. of survivors/No. tested ([4]; 1.6 mg./kg.): 5/5 | No. of survivors/No. tested ([4]; 6.3 mg./kg.): 5/5 | No. of survivors/No. tested ([4]; 25 mg./kg.): 5/5 | ED50 ([4]; Staphylococcus aureus, read-out: PD50): 0.6 mg/kg | ED50 ([5]; Proteus vulgaris, in Mus musculus, sc, read-out: PD50): 36 mg/kg | No. of survivors/No. tested ([5]; 0.8 mg./kg.): 0/5 | No. of survivors/No. tested ([5]; 3.1 mg./kg.): 0/5 | No. of survivors/No. tested ([5]; 12.5 mg./kg.): 1/5 | No. of survivors/No. tested ([5]; 50 mg./kg.): 3/5 | MIC ([6]; A20019, MHA, Table 1): 100 µg/mL (≈ 216 µM) | MIC ([6]; MHA, Example 10): 100 µg/mL (≈ 216 µM) | MIC ([6]; Sm-1 A20019 (β-lactamase), HIA, Table 4): 50 µg/mL (≈ 108 µM) | MIC ([6]; Sm-1 A20019 (β-lactamase), MHA, Table 4): 100 µg/mL (≈ 216 µM) | MIC ([6]; Sm-1 A20019 (β-lactamase), NA, Table 4): 50 µg/mL (≈ 108 µM) | MIC ([6]; Sm-1 A20019, MHA, Table 3): 25 µg/mL (≈ 54.1 µM) | MIC ([6]; Sm-2 A20335, MHA, Table 3): 12.5 µg/mL (≈ 27 µM) | MIC ([6]; Sm-3 A20336, HIA, Table 4): 50 µg/mL (≈ 108 µM) | MIC ([6]; Sm-3 A20336, MHA, Table 3): 12.5 µg/mL (≈ 27 µM) | MIC ([6]; Sm-3 A20336, MHA, Table 4): 100 µg/mL (≈ 216 µM) | MIC ([6]; Sm-3 A20336, NA, Table 4): 50 µg/mL (≈ 108 µM) | MIC ([6]; Sm-4 A20442, MHA, Table 3): 12.5 µg/mL (≈ 27 µM) | MIC ([6]; Sm-5 A20222, MHA, Table 3): 12.5 µg/mL (≈ 27 µM) | MIC ([6]; Sm-6 A20460, MHA, Table 3): 12.5 µg/mL (≈ 27 µM) | MIC ([6]; Sm-9 A20333, MHA, Table 3): 50 µg/mL (≈ 108 µM) | MIC ([6]; Sm-10 A20334, MHA, Table 3): 50 µg/mL (≈ 108 µM) | MIC ([6]; Sm-11 A20459, MHA, Table 3): 25 µg/mL (≈ 54.1 µM) | MIC ([6]; Sm-12 A20461, MHA, Table 3): 50 µg/mL (≈ 108 µM) | MIC ([7]; A9554, MHA, Table 1): 0.4 µg/mL (≈ 0.865 µM) | MIC ([7]; Pm-1 A9554, HIA, Table 4): 0.4 µg/mL (≈ 0.865 µM) | MIC ([7]; Pm-1 A9554, NA, Table 4): 0.2 µg/mL (≈ 0.432 µM) | MIC ([7]; Pm-2 A9900, HIA, Table 4): 0.4 µg/mL (≈ 0.865 µM) | MIC ([7]; Pm-2 A9900, MHA, Table 3): 1.6 µg/mL (≈ 3.46 µM) | MIC ([7]; Pm-2 A9900, MHA, Table 4): 0.8 µg/mL (≈ 1.73 µM) | MIC ([7]; Pm-2 A9900, NA, Table 4): 0.4 µg/mL (≈ 0.865 µM) | MIC ([7]; Pm-3 A20119, MHA, Table 3): 3.1 µg/mL (≈ 6.7 µM) | MIC ([7]; Pm-4 A20454, MHA, Table 3): 1.6 µg/mL (≈ 3.46 µM) | MIC ([7]; Pm-6 A21222, MHA, Table 3): 1.6 µg/mL (≈ 3.46 µM) | MIC ([7]; strain not named (2nd of 2), MHA, Example 10): 0.2 µg/mL (≈ 0.432 µM) | MIC [8]: 0.2 µg/mL (≈ 0.432 µM)
